{"source": "PubChem BioAssay (NCI)", "note": "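Briefly, cells in 96-well plates were exposed to five compound concentrations for 48 h, and endpoints were estimated by linear interpolation. GI50 = concentration required for 50% inhibition of growth. The concentration for full growth arrest is given as TGI.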"}
{"tested_on": "COLO 205 colon", "experiment": "inhibition of tumour cell growth, NCI panel, 48 h", "units": {"TGI": "µM", "GI50": "µM"}}
{"smiles": "CCOC(=O)c1c(N2CCOCC2)[nH]c(=O)c(C(c2c(Cl)cccc2Cl)c2c(O)c(C(=O)OCC)c(N3CCOCC3)[nH]c2=O)c1O", "TGI": 14.9}
{"smiles": "CC/C=C\\C[C@H](O)C/C=C1/C(=O)C=C[C@@H]1C/C=C\\CCCC(=O)OC", "GI50": 1.84, "TGI": 4.02}
{"tested_on": "NCI-H522 lung", "experiment": "inhibition of tumour cell growth, NCI panel, 48 h", "units": {"GI50": "µM", "TGI": "µM"}}
{"smiles": "Nc1nc(Nc2cccnc2)sc1C(=O)c1ccccc1F", "GI50": 8.26, "TGI": "> 64.1"}
{"smiles": "COc1ccc2[nH]c3c4[nH]c5ccc(OC)cc5c4c4c(c3c2c1)C(=O)NC4=O", "GI50": 2.32, "TGI": "> 25"}
{"smiles": "CCOC(=O)c1c(N2CCOCC2)[nH]c(=O)c(C(c2c(Cl)cccc2Cl)c2c(O)c(C(=O)OCC)c(N3CCOCC3)[nH]c2=O)c1O", "TGI": 3.72}
{"smiles": "CC/C=C\\C[C@H](O)C/C=C1/C(=O)C=C[C@@H]1C/C=C\\CCCC(=O)OC", "GI50": 1.03, "TGI": 2.43}
{"tested_on": "MCF7 breast", "experiment": "inhibition of tumour cell growth, NCI panel, 48 h", "units": {"GI50": "µM", "TGI": "µM"}}
{"smiles": "Nc1nc(Nc2cccnc2)sc1C(=O)c1ccccc1F", "GI50": 1.94, "TGI": 8.41}
{"smiles": "COc1ccc2[nH]c3c4[nH]c5ccc(OC)cc5c4c4c(c3c2c1)C(=O)NC4=O", "GI50": "> 25", "TGI": "> 25"}
{"smiles": "CCOC(=O)c1c(N2CCOCC2)[nH]c(=O)c(C(c2c(Cl)cccc2Cl)c2c(O)c(C(=O)OCC)c(N3CCOCC3)[nH]c2=O)c1O", "TGI": 6.63}
{"smiles": "CC/C=C\\C[C@H](O)C/C=C1/C(=O)C=C[C@@H]1C/C=C\\CCCC(=O)OC", "GI50": 0.376, "TGI": 3.62}
{"tested_on": "UO-31 renal", "experiment": "inhibition of tumour cell growth, NCI panel, 48 h", "units": {"GI50": "µM", "TGI": "µM"}}
{"smiles": "Nc1nc(Nc2cccnc2)sc1C(=O)c1ccccc1F", "GI50": 2.45, "TGI": "> 26.5"}
{"smiles": "COc1ccc2[nH]c3c4[nH]c5ccc(OC)cc5c4c4c(c3c2c1)C(=O)NC4=O", "GI50": 0.654, "TGI": "> 25"}
{"smiles": "CCOC(=O)c1c(N2CCOCC2)[nH]c(=O)c(C(c2c(Cl)cccc2Cl)c2c(O)c(C(=O)OCC)c(N3CCOCC3)[nH]c2=O)c1O", "TGI": 6.37}
{"smiles": "CC/C=C\\C[C@H](O)C/C=C1/C(=O)C=C[C@@H]1C/C=C\\CCCC(=O)OC", "GI50": 1.75, "TGI": 3.4}
{"tested_on": "CAKI-1 renal", "experiment": "inhibition of tumour cell growth, NCI panel, 48 h", "units": {"GI50": "µM", "TGI": "µM"}}
{"smiles": "Nc1nc(Nc2cccnc2)sc1C(=O)c1ccccc1F", "GI50": 1.94, "TGI": 6.86}
{"smiles": "COc1ccc2[nH]c3c4[nH]c5ccc(OC)cc5c4c4c(c3c2c1)C(=O)NC4=O", "GI50": 1.77, "TGI": "> 25"}
{"smiles": "CCOC(=O)c1c(N2CCOCC2)[nH]c(=O)c(C(c2c(Cl)cccc2Cl)c2c(O)c(C(=O)OCC)c(N3CCOCC3)[nH]c2=O)c1O", "TGI": 5.24}
{"smiles": "CC/C=C\\C[C@H](O)C/C=C1/C(=O)C=C[C@@H]1C/C=C\\CCCC(=O)OC", "GI50": 3.11, "TGI": 12.7}
{"tested_on": "ACHN renal", "experiment": "inhibition of tumour cell growth, NCI panel, 48 h", "units": {"GI50": "µM", "TGI": "µM"}}
{"smiles": "Nc1nc(Nc2cccnc2)sc1C(=O)c1ccccc1F", "GI50": 2.53, "TGI": "> 100"}
{"smiles": "COc1ccc2[nH]c3c4[nH]c5ccc(OC)cc5c4c4c(c3c2c1)C(=O)NC4=O", "GI50": "> 6.71", "TGI": "> 25"}
{"smiles": "CCOC(=O)c1c(N2CCOCC2)[nH]c(=O)c(C(c2c(Cl)cccc2Cl)c2c(O)c(C(=O)OCC)c(N3CCOCC3)[nH]c2=O)c1O", "TGI": 13}
{"smiles": "CC/C=C\\C[C@H](O)C/C=C1/C(=O)C=C[C@@H]1C/C=C\\CCCC(=O)OC", "GI50": 2, "TGI": 4.27}
{"tested_on": "SK-MEL-5 melanoma", "experiment": "inhibition of tumour cell growth, NCI panel, 48 h", "units": {"GI50": "µM", "TGI": "µM"}}
{"smiles": "Nc1nc(Nc2cccnc2)sc1C(=O)c1ccccc1F", "GI50": 0.349, "TGI": 3.32}
{"smiles": "COc1ccc2[nH]c3c4[nH]c5ccc(OC)cc5c4c4c(c3c2c1)C(=O)NC4=O", "GI50": "> 22", "TGI": "> 25"}
{"smiles": "CCOC(=O)c1c(N2CCOCC2)[nH]c(=O)c(C(c2c(Cl)cccc2Cl)c2c(O)c(C(=O)OCC)c(N3CCOCC3)[nH]c2=O)c1O", "TGI": 16.1}
{"smiles": "CC/C=C\\C[C@H](O)C/C=C1/C(=O)C=C[C@@H]1C/C=C\\CCCC(=O)OC", "GI50": 1.54, "TGI": 2.91}
{"tested_on": "OVCAR-8 ovarian", "experiment": "inhibition of tumour cell growth, NCI panel, 48 h", "units": {"GI50": "µM", "TGI": "µM"}}
{"smiles": "Nc1nc(Nc2cccnc2)sc1C(=O)c1ccccc1F", "GI50": 3.9, "TGI": "> 100"}
{"smiles": "COc1ccc2[nH]c3c4[nH]c5ccc(OC)cc5c4c4c(c3c2c1)C(=O)NC4=O", "GI50": "> 13.2", "TGI": "> 25"}
{"smiles": "CCOC(=O)c1c(N2CCOCC2)[nH]c(=O)c(C(c2c(Cl)cccc2Cl)c2c(O)c(C(=O)OCC)c(N3CCOCC3)[nH]c2=O)c1O", "TGI": 20.5}
{"smiles": "CC/C=C\\C[C@H](O)C/C=C1/C(=O)C=C[C@@H]1C/C=C\\CCCC(=O)OC", "GI50": 2.61, "TGI": 11.1}
{"tested_on": "SNB-19 CNS", "experiment": "inhibition of tumour cell growth, NCI panel, 48 h", "units": {"GI50": "µM", "TGI": "µM"}}
{"smiles": "Nc1nc(Nc2cccnc2)sc1C(=O)c1ccccc1F", "GI50": 2.65, "TGI": "> 23.5"}
{"smiles": "COc1ccc2[nH]c3c4[nH]c5ccc(OC)cc5c4c4c(c3c2c1)C(=O)NC4=O", "GI50": "> 25", "TGI": "> 25"}
{"smiles": "CCOC(=O)c1c(N2CCOCC2)[nH]c(=O)c(C(c2c(Cl)cccc2Cl)c2c(O)c(C(=O)OCC)c(N3CCOCC3)[nH]c2=O)c1O", "TGI": 21.1}
{"smiles": "CC/C=C\\C[C@H](O)C/C=C1/C(=O)C=C[C@@H]1C/C=C\\CCCC(=O)OC", "GI50": 2.88, "TGI": 14}
{"tested_on": "NCI-H226 lung", "experiment": "inhibition of tumour cell growth, NCI panel, 48 h", "units": {"GI50": "µM", "TGI": "µM"}}
{"smiles": "Nc1nc(Nc2cccnc2)sc1C(=O)c1ccccc1F", "GI50": 2.67, "TGI": 31.4}
{"smiles": "COc1ccc2[nH]c3c4[nH]c5ccc(OC)cc5c4c4c(c3c2c1)C(=O)NC4=O", "GI50": "> 25", "TGI": "> 25"}
{"smiles": "CCOC(=O)c1c(N2CCOCC2)[nH]c(=O)c(C(c2c(Cl)cccc2Cl)c2c(O)c(C(=O)OCC)c(N3CCOCC3)[nH]c2=O)c1O", "TGI": 27.3}
{"smiles": "CC/C=C\\C[C@H](O)C/C=C1/C(=O)C=C[C@@H]1C/C=C\\CCCC(=O)OC", "GI50": 2.17, "TGI": 4.63}
{"tested_on": "NCI-H460 lung", "experiment": "inhibition of tumour cell growth, NCI panel, 48 h", "units": {"GI50": "µM", "TGI": "µM"}}
{"smiles": "Nc1nc(Nc2cccnc2)sc1C(=O)c1ccccc1F", "GI50": 2.57, "TGI": 17.9}
{"smiles": "COc1ccc2[nH]c3c4[nH]c5ccc(OC)cc5c4c4c(c3c2c1)C(=O)NC4=O", "GI50": "> 10.3", "TGI": "> 25"}
{"smiles": "CCOC(=O)c1c(N2CCOCC2)[nH]c(=O)c(C(c2c(Cl)cccc2Cl)c2c(O)c(C(=O)OCC)c(N3CCOCC3)[nH]c2=O)c1O", "TGI": 45.2}
{"smiles": "CC/C=C\\C[C@H](O)C/C=C1/C(=O)C=C[C@@H]1C/C=C\\CCCC(=O)OC", "GI50": 3.26, "TGI": 11.2}
{"tested_on": "TK-10 renal", "experiment": "inhibition of tumour cell growth, NCI panel, 48 h", "units": {"GI50": "µM", "TGI": "µM"}}
{"smiles": "Nc1nc(Nc2cccnc2)sc1C(=O)c1ccccc1F", "GI50": 4.09, "TGI": 49.9}
{"smiles": "COc1ccc2[nH]c3c4[nH]c5ccc(OC)cc5c4c4c(c3c2c1)C(=O)NC4=O", "GI50": "> 7.63", "TGI": "> 25"}
{"smiles": "CCOC(=O)c1c(N2CCOCC2)[nH]c(=O)c(C(c2c(Cl)cccc2Cl)c2c(O)c(C(=O)OCC)c(N3CCOCC3)[nH]c2=O)c1O", "TGI": 14.3}
{"smiles": "CC/C=C\\C[C@H](O)C/C=C1/C(=O)C=C[C@@H]1C/C=C\\CCCC(=O)OC", "GI50": 3.29, "TGI": 9.13}
{"tested_on": "HCT-15 colon", "experiment": "inhibition of tumour cell growth, NCI panel, 48 h", "units": {"GI50": "µM", "TGI": "µM"}}
{"smiles": "Nc1nc(Nc2cccnc2)sc1C(=O)c1ccccc1F", "GI50": 2.82, "TGI": "> 87.8"}
{"smiles": "COc1ccc2[nH]c3c4[nH]c5ccc(OC)cc5c4c4c(c3c2c1)C(=O)NC4=O", "GI50": "> 14.3", "TGI": "> 25"}
{"smiles": "CCOC(=O)c1c(N2CCOCC2)[nH]c(=O)c(C(c2c(Cl)cccc2Cl)c2c(O)c(C(=O)OCC)c(N3CCOCC3)[nH]c2=O)c1O", "TGI": 15.6}
{"smiles": "CC/C=C\\C[C@H](O)C/C=C1/C(=O)C=C[C@@H]1C/C=C\\CCCC(=O)OC", "GI50": 0.538, "TGI": 2.79}
{"tested_on": "OVCAR-5 ovarian", "experiment": "inhibition of tumour cell growth, NCI panel, 48 h", "units": {"GI50": "µM", "TGI": "µM"}}
{"smiles": "Nc1nc(Nc2cccnc2)sc1C(=O)c1ccccc1F", "GI50": 2.17, "TGI": 7.61}
{"smiles": "COc1ccc2[nH]c3c4[nH]c5ccc(OC)cc5c4c4c(c3c2c1)C(=O)NC4=O", "GI50": "> 25", "TGI": "> 25"}
{"smiles": "CCOC(=O)c1c(N2CCOCC2)[nH]c(=O)c(C(c2c(Cl)cccc2Cl)c2c(O)c(C(=O)OCC)c(N3CCOCC3)[nH]c2=O)c1O", "TGI": 27.5}
{"smiles": "CC/C=C\\C[C@H](O)C/C=C1/C(=O)C=C[C@@H]1C/C=C\\CCCC(=O)OC", "GI50": 2.7, "TGI": 6.69}
{"tested_on": "HOP-62 NSCLC", "experiment": "inhibition of tumour cell growth, NCI panel, 48 h", "units": {"GI50": "µM", "TGI": "µM"}}
{"smiles": "Nc1nc(Nc2cccnc2)sc1C(=O)c1ccccc1F", "GI50": 6.67, "TGI": "> 93.8"}
{"smiles": "COc1ccc2[nH]c3c4[nH]c5ccc(OC)cc5c4c4c(c3c2c1)C(=O)NC4=O", "GI50": "> 25", "TGI": "> 25"}
{"smiles": "CCOC(=O)c1c(N2CCOCC2)[nH]c(=O)c(C(c2c(Cl)cccc2Cl)c2c(O)c(C(=O)OCC)c(N3CCOCC3)[nH]c2=O)c1O", "TGI": 30.4}
{"smiles": "CC/C=C\\C[C@H](O)C/C=C1/C(=O)C=C[C@@H]1C/C=C\\CCCC(=O)OC", "GI50": 1.48, "TGI": 5.15}
